Read-outs that look alike come from different tables or passages of the source.
Key:
leaves of Pinto beans = test: Stimulation of carbon dioxide fixation, Pinto beans (Example 21); conditions: zeatin 20, kinetin/benzyladenine 30, others 200 ppm; for Radioactivity A: A = in the light, control 2.14; for Radioactivity B: B = in the dark, control 0.18; for Radioactivity C: C = photosynthetic, control 2.32
Method: The tests were performed on leaves of Pinto beans. The leaf segments were treated with an endogeneous cytokinin (zeatin), synthetic cytokinins (kinetin, benzyladenine) or with the compositions according to the invention, respectively, by floating the leaf segments on the solution of the test substance for 18 hours, thereafter the leaf segments were exposed to labelled carbon dioxide (activity: 100 μCi/5000 ml of ^14 CO2) for 0.5 hours.

green parts of maize = test: Stimulation of plant photolysis, HTO, maize (Example 22); conditions: 2 hours; for Radioactivity: 500 ppm, control 4.64
Method: The compositions according to the invention were diluted with distilled water to an active agent content of 500 ppm, and green parts of maize, weighing 200 mg, were treated with the resulting solutions for 2 hours. Thereafter the treated green plant parts were treated for one hour with 10 μCi/50 ml HTO, then the plant parts were frozen with liquid nitorgen, triturated, subjected to chromatographic separation, and the radioactivity of the isolated glycerol aldehyde was determined.
In the control test the green parts of maize were treated with distilled water only.

[1] = test system: Mixed soybean/sunflower cultures; test: Nitrogen content of mixed soybean/sunflower culture (Example 27); type: in vivo; conditions: 3 x 2 kg/ha; for Protein nitrogen content: control 2.27; for Total nitrogen content: control 2.56; for Protein nitrogen content in % of the total nitrogen content: control 65.2
Method: Mixed soybean/sunflower cultures, to be harvested when green, were treated with the compositions according to the invention under large-parcel field conditions. The tests were performed in fourfold replications on parcels 1 hectare in area, each. The compositions were diluted with water and sprayed onto the parcels three times, in doses of 2 kg/ha, each. The first treatment was performed when the soil was already completely covered by green plants, the second treatment was performed two weeks later, and then the third after two additional weeks. The green plants were harvested from the treated and control parcels, and the total nitrogen content and protein nitrogen content were determined.

[2] = test system: Edible beans (Superelite variety); test: Crop yield of edible beans (Example 35); type: in vivo; conditions: for Crop yield: control 15.00
From the text: Edible beans (Superelite variety) were sprayed once or twice with the compositions according to the invention.
From the data of Table 29 conclusions can be drawn for the correlation between the development stage of the stand at treatment and the effect of the treatment.

soybean leaf segments = test: Stimulation of the protein level of soybean, glycine-14C incorporation (Example 18); conditions: 24 hours; for Radioactivity: 200 ppm, control 11.9
Method: The active agent to be tested was dissolved in distilled water to form a 200 ppm solution, and soybean leaf segments, weighing 200 mg, were floated on the surface of the solution for 24 hours. In the control test leaf segments, weighing 200 mg, were floated on the surface of distilled water.
The leaf segments were washed with distilled water, and then treated for 3 hours with 20 ml of a solution containing labelled amino acid (glycine-^14 C; activity: 2 μCi). After this exposition period the leaf segments were washed with an aboundant amount of water, and the protein content of the leaf segments was isolated in a manner known per se. Stock solution was prepared from the isolated protein, and the specific radioactivity of the solution was determined by liquid scintillation.

[3] = test system: Egri leanyka vine variety; test: Berry yield and sugar content of vine, Egri leanyka (Example 33); type: in vivo; conditions: for Berry yield: 3 x 2 kg/ha, control 151.15; for Sugar content: control 16.7; for Sugar yield: control 18.93
Method: (§1) Vine stands were sprayed with the compositions according to the invention to examine their effects exerted on the berry yield and sugar content. The compositions, diluted with water, were sprayed three times onto the plants. The first treatment was performed prior to flowering, the second one three weeks later, and the third one six weeks after the first one. The dose applied was 2 kg/ha in each of the treatments.
(§2) Comparative tests were also performed with commonly used growth regulating compositions, i.e. CCC (chlorocholine chloride), Ethrel (or Etefon; 2-chloroethylphosphonic acid) and Nevirol (N-phenyl-phthalaiminic acid). The results were compared to those observed with the untreated controls.
(§3) Two vine varieties, Pannonia and Egri leanyka, were involved in the tests.

[4] = test system: callus isolated from Datura innoxia Mill. roots; test: Growth of callus isolated from Datura innoxia Mill. roots (Example 15); type: cell-based; conditions: for percentage growth promoting effect: control = 100, 30240 min
hybrid maize = test: Grain yield of maize (Example 29); type: in vivo; conditions: for Grain yield, increase: in vivo; for Grain yield: seed dressing 0.5 kg/ha + sprays 3, 1, 2 kg/ha, control 132.8
Method: The compositions according to the invention were applied as seed dressing agents onto the sowing-seeds of hybrid maize in a dosis of 0.5 kg/ha. The powdery compositions were wetted with water prior to application. The stand was sprayed three times during the cultivation period: first at the four-leaves development stage with a dosis of 3 kg/ha, then prior to tasseling with a dosis of 1 kg/ha, and finally prior to pollen ripening with a dosis of 2 kg/ha. The crop was evaluated as May shelled corn.

Pannonia vine variety = test: Berry yield and sugar content of vine, Pannonia (Example 33); type: in vivo; conditions: for Berry yield: 3 x 2 kg/ha, control 216; for Sugar content: control 13.0; for Sugar yield: control 28.08
Method: as §1, §2, §3

sugar beet = test: Crop yield and sugar content of sugar beet (Example 32); type: in vivo; conditions: for Crop yield: 1 kg/ha seed + 2 x 2 kg/ha, control 541; for Sugar content: after harvesting, control 16.0; for Sugar yield: control 87.56; for Sugar yield, increase: in vivo
Method: Glomeruli of sugar beet were treated with the compositions according to the invention (a dose corresponding to 1 kg/ha was applied), and the glomeruli were sown into large parcels. The plants emerged were sprayed twice with the compositions according to the invention, applying a dose of 2 kg/ha, each.
The sugar contents of the plants grown on the treated and control parcels were examined in August.
The crop yield and the sugar content were also determined after harvesting.

Tobacco callus = test: Daily growth, cell number and frequency of mitosis of tobacco callus (Example 13); type: cell-based; conditions: for Cell number/g / Daily growth: 10 ppm active agent, 3 weeks
Method: An untreated culture medium served as control. Tobacco callus was grown on the treated and untreated culture media (incubation period: 3 weeks), and the daily growth, the increase in cell number and the frequency of mitosis were measured according to the method of Skoog.

[5] = 2 treatments, 06.20.1979 and 07.06.1979

Compound: N=C(N)N.N=C(N)N.Oc1nnc(O)c2ccccc12 [1,4-dihydroxyphthalazine diguanidine salt]
- Radioactivity A (leaves of Pinto beans): 3.38 dpm/200 mg fresh weight
- Radioactivity B (leaves of Pinto beans): 0.31 dpm/200 mg fresh weight
- Radioactivity C (leaves of Pinto beans): 3.69 dpm/200 mg fresh weight
- Stimulation (leaves of Pinto beans): 59.3%
- Radioactivity (green parts of maize): 11.42 dpm/mg dry weight
- activation at 500 ppm (green parts of maize; Zea mays): 146%
- Protein nitrogen content, stimulation [1]: 39.6%
- Total nitrogen content, stimulation [1]: 34.7%
- Protein nitrogen content [1]: 3.17 % of dry weight
- Total nitrogen content [1]: 3.45 % of dry weight
- Protein nitrogen content in % of the total nitrogen content [1]: 94.8%
- Crop yield, increase ([2]; 1 treatment, 07.06.1979): 18.4%
- Crop yield ([2]; 1 treatment, 07.06.1979): 17.77 q/ha
- Radioactivity (soybean leaf segments): 15.5 mu Ci/100 mg
- activation at 200 ppm (soybean leaf segments; Glycine max): 30.2%
- Berry yield [3]: 124.23 q/ha
- Sugar content [3]: 16.8%
- Sugar yield [3]: 15.65 q/ha
- Dry substance ([4]; with kinetin (2 ppm)): 3.53%
- Dry weight of the callus ([4]; with kinetin (2 ppm)): 269.07 mg
- Fresh weight of the callus ([4]; with kinetin (2 ppm)): 7.6110 g
- Growth, dry weight ([4]; with kinetin (2 ppm)): 24.46
- Growth, fresh weight ([4]; with kinetin (2 ppm)): 24.37
- Speed of growth ([4]; with kinetin (2 ppm)): 149.20 mg/day
- percentage growth promoting effect ([4]; with kinetin): 156%
- Dry substance ([4]; without kinetin): 7.14%
- Dry weight of the callus ([4]; without kinetin): 66.11 mg
- Fresh weight of the callus ([4]; without kinetin): 0.9258 g
- Growth, dry weight ([4]; without kinetin): 5.25
- Growth, fresh weight ([4]; without kinetin): 2.08
- Speed of growth ([4]; without kinetin): 12.77 mg/day
- percentage growth promoting effect ([4]; without kinetin): 648%
- Grain yield, increase (hybrid maize): 37.0%
- Grain yield (hybrid maize): 181.9 q/ha
- Sugar content, increase (Pannonia vine variety): 53.8%
- Sugar yield, increase (Pannonia vine variety): 62%
- Berry yield (Pannonia vine variety): 232 q/ha
- Sugar content (Pannonia vine variety): 20.0%
- Sugar yield (Pannonia vine variety): 46.40 q/ha
- Crop yield (sugar beet): 608 q/ha
- Sugar content (sugar beet): 16.45%
- Sugar yield (sugar beet): 100.01 q/ha
- Sugar yield, increase (sugar beet): 14%
- Cell number/g (Tobacco callus): 266.0 10^4 units
- Daily growth (Tobacco callus): 19.3 mg
- activity at 10 ppm (Tobacco callus; Nicotiana tabacum, 504 h, 10 ppm, untreated control = 100): 117%

Compound: CCC[n+]1c[nH]c2ccccc21.[Br-] [N--(n-Propyl)-benzimidazolium bromide, N-(n-propyl)-benzimidazolium bromide]
- Radioactivity A (leaves of Pinto beans): 3.92 dpm/200 mg fresh weight
- Radioactivity B (leaves of Pinto beans): 0.34 dpm/200 mg fresh weight
- Radioactivity C (leaves of Pinto beans): 4.26 dpm/200 mg fresh weight
- Stimulation (leaves of Pinto beans): 84.0%
- Radioactivity (green parts of maize): 8.76 dpm/mg dry weight
- Protein nitrogen content, stimulation [1]: 21.1%
- Total nitrogen content, stimulation [1]: 9.7%
- Protein nitrogen content [1]: 2.75 % of dry weight
- Total nitrogen content [1]: 2.80 % of dry weight
- Protein nitrogen content in % of the total nitrogen content [1]: 98.9%
- Crop yield, increase ([2]; 1 treatment, 06.20.1979): 18.4%
- Crop yield ([2]; 1 treatment, 06.20.1979): 17.77 q/ha
- Crop yield, increase ([2]; 1 treatment, 07.06.1979): 13.5%
- Crop yield ([2]; 1 treatment, 07.06.1979): 17.03 q/ha
- Crop yield, increase [2, 5]: 30.1%
- Crop yield [2, 5]: 19.52 q/ha
- Radioactivity (soybean leaf segments): 13.7 mu Ci/100 mg
- Berry yield, increase [3]: 17.0%
- Sugar yield, increase [3]: 17.0%
- influence on sugar content, in words [3]: did not influence the sugar content
- Berry yield [3]: 176.92 q/ha
- Sugar content [3]: 16.7%
- Sugar yield [3]: 22.16 q/ha
- Berry yield, increase ([3]; listed as N-(n-propyl)-benzimidazolium bromide): 17%
- Dry substance ([4]; with kinetin (2 ppm)): 3.17%
- Dry weight of the callus ([4]; with kinetin (2 ppm)): 209.13 mg
- Fresh weight of the callus ([4]; with kinetin (2 ppm)): 6.5772 g
- Growth, dry weight ([4]; with kinetin (2 ppm)): 18.78
- Growth, fresh weight ([4]; with kinetin (2 ppm)): 20.92
- Speed of growth ([4]; with kinetin (2 ppm)): 128.10 mg/day
- percentage growth promoting effect ([4]; with kinetin): 134%
- Dry substance ([4]; without kinetin): 7.07%
- Dry weight of the callus ([4]; without kinetin): 43.29 mg
- Fresh weight of the callus ([4]; without kinetin): 0.6120 g
- Growth, dry weight ([4]; without kinetin): 3.09
- Growth, fresh weight ([4]; without kinetin): 1.04
- Speed of growth ([4]; without kinetin): 6.36 mg/day
- percentage growth promoting effect ([4]; without kinetin): 322%
- Grain yield, increase (hybrid maize): 12.4%
- Grain yield (hybrid maize): 149.3 q/ha
- Sugar content, increase (Pannonia vine variety): 21.5%
- Sugar yield, increase (Pannonia vine variety): 27%
- Berry yield (Pannonia vine variety): 226 q/ha
- Sugar content (Pannonia vine variety): 15.8%
- Sugar yield (Pannonia vine variety): 35.70 q/ha
- Crop yield (sugar beet): 877 q/ha
- Sugar content (sugar beet): 17.05%
- Sugar yield (sugar beet): 149.49 q/ha
- Sugar yield, increase (sugar beet): 70%
- Cell number/g (Tobacco callus): 327.5 10^4 units
- Daily growth (Tobacco callus): 22.8 mg

Source: patent US4620871A (priority 1980, dated 1986)
